Measured values: the supplement of paper PMC11061612

Legend:
Capivasertib = compound: C1CN(CCC1(C(=O)N[C@@H](CCO)C2=CC=C(C=C2)Cl)N)C3=NC=NC4=C3C=CN4 [Capivasertib]; conditions: max 10 µM
Method in brief: (§1)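 Following 24 hours at 37°C and 5% CO2, cancer cell lines in 1536-well plates with 7.5 μl DMEM/F12 or RPMI and 10% FBS were dosed for 72 hours, final DMSO typically being 0.2%. CellTiter-Glo 2.0 luminescence, scaled between blank-well and DMSO-well means, gave the viability readout. Dose responses were fitted to a two-parameter logistic curve with a non-linear mixed effects model, and the single-agent IC50 was derived from this fit.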

AZD1775 = compound: C=CCn1c(=O)c2cnc(Nc3ccc(N4CCN(C)CC4)cc3)nc2n1-c1cccc(C(C)(C)O)n1 [AZD1775]
Method in brief: as §1

Gefitinib = compound: COc1cc2ncnc(Nc3ccc(F)c(Cl)c3)c2cc1OCCCN1CCOCC1 [Gefitinib]; conditions: max 10 µM
Method in brief: as §1

Etoposide = compound: COc1cc([C@@H]2c3cc4c(cc3[C@@H](O[C@@H]3O[C@@H]5CO[C@@H](C)O[C@H]5[C@H](O)[C@H]3O)[C@H]3COC(=O)[C@H]23)OCO4)cc(OC)c1O [Etoposide]; conditions: max 10 µM
Method in brief: as §1

SRA737 = compound: N#Cc1cnc(Nc2cc(NC[C@H]3CNCCO3)c(C(F)(F)F)cn2)cn1 [SRA737]; conditions: max 10 µM
Method in brief: as §1

SN-38 = compound: CCc1c2c(nc3ccc(O)cc13)-c1cc3c(c(=O)n1C2)COC(=O)[C@]3(O)CC [SN-38]; conditions: max 0.3 µM
Method in brief: as §1

Trametinib = compound: CC(=O)Nc1cccc(-n2c(=O)n(C3CC3)c(=O)c3c(Nc4ccc(I)cc4F)n(C)c(=O)c(C)c32)c1 [Trametinib]; conditions: max 1 µM
Method in brief: as §1

AZD5153 = compound: COc1nnc2ccc(N3CCC(c4ccc(OCCN5CCN(C)C(=O)[C@H]5C)cc4)CC3)nn12 [AZD5153]; conditions: max 1 µM
Method in brief: as §1

Doxorubicin = compound: COc1cccc2c1C(=O)c1c(O)c3c(c(O)c1C2=O)C[C@@](O)(C(=O)CO)C[C@@H]3O[C@H]1C[C@H](N)[C@H](O)[C@H](C)O1 [Doxorubicin]; conditions: max 1 µM
Method in brief: as §1

AZD0156 = compound: CN(C)CCCOc1ccc(-c2ccc3ncc4c(c3c2)n(C2CCOCC2)c(=O)n4C)cn1 [AZD0156]
Method in brief: as §1

Olaparib = compound: O=C(c1cc(Cc2n[nH]c(=O)c3ccccc23)ccc1F)N1CCN(C(=O)C2CC2)CC1 [Olaparib]; conditions: max 10 µM
Method in brief: as §1

Dasatinib = compound: CC1=C(C(=CC=C1)Cl)NC(=O)C2=CN=C(S2)NC3=CC(=NC(=N3)C)N4CCN(CC4)CCO [Dasatinib]; conditions: max 2 µM
Method in brief: as §1

AZD7648 = compound: Cc1cc2ncnn2cc1Nc1ncc2c(n1)n(C1CCOCC1)c(=O)n2C [AZD7648]; conditions: max 10 µM
Method in brief: as §1

Selumetinib = compound: Cn1cnc2c(F)c(Nc3ccc(Br)cc3Cl)c(C(=O)NOCCO)cc21 [Selumetinib]; conditions: max 10 µM
Method in brief: as §1

AZD4320 = compound: CN(CC[C@H](CSC1=CC=CC=C1)NC2=C(C=C(C=C2)S(=O)(=O)NC(=O)C3=CC=C(C=C3)N4CCC(CC4)[C@H](C5=CC=CC=C5C6=CC=C(C=C6)Cl)O)S(=O)(=O)C(F)(F)F)CCO [AZD4320]; conditions: max 1 µM
Method in brief: as §1

Venetoclax = compound: CC1(C)CCC(CN2CCN(c3ccc(C(=O)NS(=O)(=O)c4ccc(NCC5CCOCC5)c([N+](=O)[O-])c4)c(Oc4cnc5[nH]ccc5c4)c3)CC2)=C(c2ccc(Cl)cc2)C1 [Venetoclax]; conditions: max 1 µM
Method in brief: as §1

Gemcitabine = compound: Nc1ccn([C@@H]2O[C@H](CO)[C@@H](O)C2(F)F)c(=O)n1 [Gemcitabine]; conditions: max 0.3 µM
Method in brief: as §1

AZD8186 = compound: C[C@@H](Nc1cc(F)cc(F)c1)c1cc(C(=O)N(C)C)cc2c(=O)cc(N3CCOCC3)oc12 [AZD8186]
Method in brief: as §1

Prexasertib = compound: COc1cccc(OCCCN)c1-c1cc(Nc2cnc(C#N)cn2)n[nH]1 [Prexasertib]; conditions: max 1 µM
Method in brief: as §1

Lapatinib = compound: CS(=O)(=O)CCNCc1ccc(-c2ccc3ncnc(Nc4ccc(OCc5cccc(F)c5)c(Cl)c4)c3c2)o1 [Lapatinib]; conditions: max 10 µM
Method in brief: as §1

[1] = compound: O=C(Nc1ccc2[nH]nc(-c3ccncc3)c2c1)[C@@H]1CCN(CC(=O)N2CCN(c3ccc(-c4ncccn4)cc3)CC2)C1; conditions: max 5 µM
Method in brief: as §1

AZD1390 = compound: CC(C)n1c(=O)n(C)c2cnc3cc(F)c(-c4ccc(OCCCN5CCCCC5)nc4)cc3c21 [AZD1390]; conditions: max 0.3 µM
Method in brief: as §1

AZD5991 = compound: Cc1c2c(nn1C)CSCc1cc(n(C)n1)CSc1cc(c3ccccc3c1)OCCCc1c(C(=O)O)n(C)c3c-2c(Cl)ccc13 [AZD5991]; conditions: max 1 µM
Method in brief: as §1

Alisertib = compound: COc1cc(Nc2ncc3c(n2)-c2ccc(Cl)cc2C(c2c(F)cccc2OC)=NC3)ccc1C(=O)O [Alisertib]; conditions: max 10 µM
Method in brief: as §1

MK-2206 = compound: NC1(c2ccc(-c3nc4ccn5c(=O)[nH]nc5c4cc3-c3ccccc3)cc2)CCC1 [MK-2206]; conditions: max 10 µM
Method in brief: as §1

AZD2811 = compound: CCN(CCO)CCCOc1ccc2c(Nc3cc(CC(=O)Nc4cccc(F)c4)[nH]n3)ncnc2c1 [AZD2811]; conditions: max 1 µM
Method in brief: as §1

Palbociclib = compound: CC(=O)c1c(C)c2cnc(Nc3ccc(N4CCNCC4)cn3)nc2n(C2CCCC2)c1=O [Palbociclib]; conditions: max 10 µM
Method in brief: as §1

SG3199 = compound: CC1=CN2[C@@H](C1)C=NC3=CC(=C(C=C3C2=O)OC)OCCCCCOC4=C(C=C5C(=C4)N=C[C@@H]6CC(=CN6C5=O)C)OC [SG3199]; conditions: max 0.001 µM
Method in brief: as §1

Taselisib = compound: Cc1nc(-c2cn3c(n2)-c2ccc(-c4cnn(C(C)(C)C(N)=O)c4)cc2OCC3)n(C(C)C)n1 [Taselisib]; conditions: max 10 µM
Method in brief: as §1

Carboplatin = compound: C1CC(C1)(C(=O)[O-])C(=O)[O-].N.N.[Pt+2] [Carboplatin]; conditions: max 10 µM
Method in brief: as §1

5-Fluorouracil = compound: O=c1[nH]cc(F)c(=O)[nH]1 [5-Fluorouracil]; conditions: max 20 µM
Method in brief: as §1

Crizotinib = compound: C[C@@H](Oc1cc(-c2cnn(C3CCNCC3)c2)cnc1N)c1c(Cl)ccc(F)c1Cl [Crizotinib]; conditions: max 10 µM
Method in brief: as §1

AZD6738 = compound: C[C@@H]1COCCN1C2=NC(=NC(=C2)C3(CC3)[S@](=N)(=O)C)C4=C5C=CNC5=NC=C4 [AZD6738]; conditions: max 10 µM
Method in brief: as §1

Savolitinib = compound: C[C@@H](c1ccc2nccn2c1)n1nnc2ncc(-c3cnn(C)c3)nc21 [Savolitinib]; conditions: max 1 µM
Method in brief: as §1

AZD5363 = compound: C1CN(CCC1(C(=O)N[C@@H](CCO)C2=CC=C(C=C2)Cl)N)C3=NC=NC4=C3C=CN4 [AZD5363]; conditions: max 10 µM
Method in brief: as §1

Paclitaxel = compound: CC(=O)O[C@H]1C(=O)[C@@]2(C)[C@H]([C@H](OC(=O)c3ccccc3)[C@]3(O)C[C@H](OC(=O)[C@H](O)[C@@H](NC(=O)c4ccccc4)c4ccccc4)C(C)=C1C3(C)C)[C@]1(OC(C)=O)CO[C@@H]1C[C@@H]2O [Paclitaxel]; conditions: max 3 µM
Method in brief: as §1

Cell Line	IC50, cell viability 72 h (Capivasertib) [µM]	IC50, cell viability 72 h (AZD1775; max 1 µM) [nM]	IC50, cell viability 72 h (Gefitinib) [µM]	IC50, cell viability 72 h (Etoposide) [nM]	IC50, cell viability 72 h (SRA737) [nM]	IC50, cell viability 72 h (SN-38) [nM]	IC50, cell viability 72 h (Trametinib) [nM]	IC50, cell viability 72 h (AZD5153) [nM]	IC50, cell viability 72 h (Doxorubicin) [nM]	IC50, cell viability 72 h (AZD0156; max 1 µM) [nM]	IC50, cell viability 72 h (Olaparib) [µM]	IC50, cell viability 72 h (Dasatinib) [nM]	IC50, cell viability 72 h (AZD7648) [µM]	IC50, cell viability 72 h (Selumetinib) [µM]	IC50, cell viability 72 h (AZD4320) [nM]	IC50, cell viability 72 h (Venetoclax) [nM]	IC50, cell viability 72 h (Gemcitabine) [nM]	IC50, cell viability 72 h (AZD8186; max 3 µM) [µM]	IC50, cell viability 72 h (Prexasertib) [nM]	IC50, cell viability 72 h (Lapatinib) [µM]	IC50, cell viability 72 h [1] [µM]	IC50, cell viability 72 h (AZD1390) [nM]	IC50, cell viability 72 h (AZD5991) [nM]	IC50, cell viability 72 h (Alisertib) [nM]	IC50, cell viability 72 h (MK-2206) [µM]	IC50, cell viability 72 h (AZD2811) [nM]	IC50, cell viability 72 h (Palbociclib) [µM]	IC50, cell viability 72 h (SG3199) [nM]	IC50, cell viability 72 h (Taselisib) [µM]	IC50, cell viability 72 h (Carboplatin) [µM]	IC50, cell viability 72 h (5-Fluorouracil) [µM]	IC50, cell viability 72 h (Crizotinib) [µM]	IC50, cell viability 72 h (AZD6738) [nM]	IC50, cell viability 72 h (Savolitinib) [nM]	IC50, cell viability 72 h (AZD1775; max 3 µM) [nM]	IC50, cell viability 72 h (AZD5363) [µM]	IC50, cell viability 72 h (AZD0156; max 3 µM) [nM]	IC50, cell viability 72 h (Paclitaxel) [nM]	IC50, cell viability 72 h (AZD8186; max 10 µM) [µM]
NB13 (Neuroblastoma)	> 10	322	> 10	2430	3640	13.7	> 1000	953	194	> 1000	> 10	> 2000	> 10	> 10	139	> 1000	> 300	> 3	15.9	> 10	> 5	> 300	> 1000	244	> 10	> 1000	> 10	> 1	> 10	> 10	> 20	3.97	2220	> 1000					
EW-7 (Ewing's Sarcoma)			> 10	253	908	5.52	> 1000	> 1000	101		> 10	> 2000	9.44	> 10	943	> 1000	4.7		5.28	> 10	> 5	> 300	> 1000	2150	5.63	> 1000	> 10	> 1	0.155	> 10	> 20	3.46	1160	> 1000	308	4.5	> 3000	40.8	> 10
NCI-H441 (Lung Adenocarcinoma)			> 10	> 10000	> 10000	112	> 1000	> 1000	> 1000		> 10	> 2000	> 10	> 10	> 1000	> 1000	299		666	> 10	> 5	> 300	> 1000	> 10000	> 10	> 1000	> 10	> 1	> 10	> 10	> 20	> 10	> 10000	> 1000	> 3000	> 10	> 3000	2240	> 10
PEO1 (Ovarian Carcinoma)			> 10	> 10000	> 10000	57.3	> 1000	> 1000	> 1000		> 10	> 2000	> 10	> 10	> 1000	> 1000	> 300		> 1000	> 10	> 5	> 300	> 1000	> 10000	> 10	> 1000	> 10	> 1	8.19	> 10	> 20	> 10	> 10000	> 1000	1540	> 10	> 3000	52.9	> 10
769-P (Kidney Carcinoma)			8.48	> 10000	1540	159	> 1000	168	816		> 10	253	> 10	> 10	> 1000	> 1000	24.3		40.6	5.24	> 5	> 300	> 1000	> 10000	> 10	> 1000	2.87	> 1	> 10	> 10	12.4	4.59	1500	> 1000	874	> 10	> 3000	109	> 10
